The text below walks through data of patent publication US20110053947A1, “Arylchalcogenoarylalkyl-substituted imidazolidine-2,4-diones, process for preparation thereof, medicaments comprising these compounds and use thereof” (SANOFI-AVENTIS, priority 2008, published 2011).

Test [1] concerns the target T1, cannabinoid 1 receptor (hCB1R) (Homo sapiens, UniProt P21554).
T1 construct: expressed in transfected cells; host or cells: HEK293
The experiment in a line: In vitro functional assay with recombinant cells (FLIPR), CB1. The settings on record: intracellular Ca2+ change after reference agonist, 20 min preincubation. The format is cell-based. The procedure: (§1) In vitro functional assays with recombinant cells:
(§2) Function-testing assays were performed by means of the FLIPR technique (“Fluorometric Imaging Plate Reader”, Molecular Devices Corp.).
(§3) To this end, ligand-induced changes in the intracellular concentration of Ca^2+ in recombinant HEK293 cells, which expressed both a cannabinoid receptor (CB1 or CB2) and G-protein Galphal6, were determined. For the studies, cells were sown into 96-well microtiter plates (60 000 cells/well) and left to grow overnight. The medium was removed and the cells were incubated in buffer which contained the fluorescent dye Fluo-4. After this loading with dye, the cells were washed, test substance was added dissolved in buffer, the mixture was incubated for 20 minutes, a known cannabinoid receptor agonist as a reference agonist was added in buffer and, finally, the changes in the intracellular Ca^2+ concentration were measured in the FLIPR unit.
Results were presented as the percentage change relative to the control (0%: analogous experiment without test substance and without reference agonist, i.e. only with buffer; 100%: analogous experiment without test substance, but with reference agonist in excess), and used to calculate dose/action curves, and IC50 values were determined.
The values of the functional assay compared to the cannabinoid 1 receptor including illustrative selectivities compared to the cannabinoid 2 receptor can be taken from table 1 which follows.

Test [2] deals with T2, CHO-K1/cannabinoid CB1 (hCB1R) (Homo sapiens, UniProt P21554).
T2 construct: expressed in transfected cells; host or cells: CHO-K1
Kind of test: Binding to the CB1 receptor ([3H]-SR141716A displacement). As for the experimental part:
Binding to the CB 1 Receptor:
Test compounds: The compounds (3 μl, 10 mM, 100% DMSO), pipetted into 96-well PP microtiter plates, were diluted with 27 μl of 100% DMSO (dimethyl sulfoxide). Proceeding from this solution, further 3-fold dilution steps were undertaken by transferring 10 μl in each case to a new PP microtiter plate and adding a further 20 μl of 100% DMSO. In each case 6 μA of these solutions were transferred into new 96-well PP microtiter plates and made up with 144 μl of assay buffer. The end concentrations ranged from 10 μM to 0.005 μM. Negative control: AM 251, dissolved in assay buffer with 1% DMSO, was added to the dilution series in the microtiter plates as a control. The end concentration was 1 μM. Blank control: assay buffer with 1% DMSO was added to the dilution series of the microtiter plates as a blank control.
Summary of the Assay Parameters:
The values were calculated using the corrected raw data.
The values reported were obtained as average values of a double determination. The IC50 values were calculated from the measurements with the program Xlfit, formula 205. Ki values were obtained from the IC50 and Kd values utilizing the Cheng-Prusoff equation: […]
Literature: Cheng, Y.-C., and Prusoff, W. H. (1973) Biochem. Pharmacol 22, 3099-3108 Results: Ki values of example compounds; Table 2: […]

The target of test [3] is T3, cannabinoid 2 receptor (hCB2R) (Homo sapiens, UniProt P34972).
T3 construct: expressed in transfected cells; host or cells: HEK293
The experiment in a line: In vitro functional assay with recombinant cells (FLIPR), CB2. Format: cell-based. As for the experimental part:
as §1, §2, §3

Test [4] deals with T4, cannabinoid CB1 receptor (CB1) (Mus musculus, UniProt P47746).
T4 construct: from tissue; host or cells: whole animal (female NMRI mice)
Kind of test: Antagonization of CB1-mediated hypothermia. Format: in vivo. Particulars: female NMRI mice; 1.25 mg/kg intraperitoneally; within 30 min. As for the experimental part: “Antagonization of CB 1-mediated Hypothermia”
The test is used to measure the potency of cannabinoid CB1 receptor (CB1) antagonists. What is measured is the extent to which the CB1 antagonists to be tested are capable of preventing or of antagonizing hypothermia induced by a CB1 agonist.
Female NMRI mice, 25-35 g in weight, are used. The mice are accustomed to the housing conditions for at least one week.
At time 0 min, the animals are treated orally, intravenously or intraperitoneally with the CB1 antagonist to be tested. 30 min later, the CB1 agonist CP55.940, 1.25 mg/kg, is administered to the mice intraperitoneally. This brings about a fall in the body temperature by 5-6° C. within 30 min. The body temperature is measured rectally for the first time 30 min before the test substance administration and then every 30 min after this administration, if appropriate immediately before a substance administration, over 4 hours.
The potency of the test substances is reported as the percentage decrease in the area under the temperature-time curve which is formed firstly by the average basal temperature, and secondly by the temperature-time curve, of the animals treated exclusively with the CB1 antagonist.

The mark [5] stands for this setting: recombinant HEK293 cells expressing CB1 and G-protein, read-out: hCB1R: FLIPR, IC50.
The mark [6] stands for this setting: recombinant HEK293 cells expressing CB2 and G-protein, intracellular Ca2+ change after reference agonist, 20 min preincubation, read-out: hCB2R: FLIPR, IC50.

Where two headings read alike, the source gives them in different places.

T3 sequence (P34972 whole entry): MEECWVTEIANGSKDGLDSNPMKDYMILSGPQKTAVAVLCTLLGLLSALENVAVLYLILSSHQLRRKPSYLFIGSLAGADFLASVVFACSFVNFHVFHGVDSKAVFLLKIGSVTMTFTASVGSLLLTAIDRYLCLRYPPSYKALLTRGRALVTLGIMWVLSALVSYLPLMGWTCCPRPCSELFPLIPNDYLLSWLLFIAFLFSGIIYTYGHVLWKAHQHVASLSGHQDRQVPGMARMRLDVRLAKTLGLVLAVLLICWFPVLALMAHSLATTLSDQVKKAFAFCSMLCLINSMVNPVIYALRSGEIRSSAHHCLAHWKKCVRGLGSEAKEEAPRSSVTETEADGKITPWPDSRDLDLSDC
T1 sequence (P21554 whole entry): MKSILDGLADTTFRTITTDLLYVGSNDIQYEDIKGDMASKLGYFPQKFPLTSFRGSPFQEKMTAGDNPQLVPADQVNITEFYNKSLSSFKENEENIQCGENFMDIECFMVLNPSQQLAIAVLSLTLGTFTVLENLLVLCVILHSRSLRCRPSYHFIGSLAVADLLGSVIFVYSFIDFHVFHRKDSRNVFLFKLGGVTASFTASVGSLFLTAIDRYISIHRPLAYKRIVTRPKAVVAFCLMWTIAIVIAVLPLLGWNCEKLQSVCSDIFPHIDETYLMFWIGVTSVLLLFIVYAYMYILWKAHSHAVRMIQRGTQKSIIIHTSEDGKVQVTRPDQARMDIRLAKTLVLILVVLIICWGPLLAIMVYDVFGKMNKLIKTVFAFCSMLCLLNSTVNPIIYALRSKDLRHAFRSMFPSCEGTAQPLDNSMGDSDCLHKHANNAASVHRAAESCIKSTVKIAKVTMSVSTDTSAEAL
T2 sequence (P21554 whole entry): as above
T4 sequence (P47746 whole entry): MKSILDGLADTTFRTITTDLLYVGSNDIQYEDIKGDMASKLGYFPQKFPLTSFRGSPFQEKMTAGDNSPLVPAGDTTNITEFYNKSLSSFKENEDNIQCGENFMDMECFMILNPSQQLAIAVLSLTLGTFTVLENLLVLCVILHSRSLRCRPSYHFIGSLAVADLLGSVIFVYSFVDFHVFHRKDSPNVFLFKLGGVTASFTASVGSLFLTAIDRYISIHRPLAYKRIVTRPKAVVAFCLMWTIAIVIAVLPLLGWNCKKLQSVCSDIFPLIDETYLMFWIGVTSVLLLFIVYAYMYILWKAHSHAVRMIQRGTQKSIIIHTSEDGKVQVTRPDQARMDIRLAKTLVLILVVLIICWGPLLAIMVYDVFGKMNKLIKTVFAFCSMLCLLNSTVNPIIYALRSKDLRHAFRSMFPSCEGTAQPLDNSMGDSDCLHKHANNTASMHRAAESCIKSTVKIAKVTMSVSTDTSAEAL

As to `CC1(C)C(=O)N(c2ccc(C#N)c(C(F)(F)F)c2)C(=O)N1Cc1ccccc1NC(=O)Nc1ccc(S(N)(=O)=O)cc1` [Example 1, 4-(3-{2-[3-(4-Cyano-3-trifluoromethylphenyl)-5,5-dimethyl-2,4-dioxo-imidazolidin-1-ylmethyl]phenyl}ureido)benzenesulfonamide], the values for the IC50 in test [1] (setting [5]) and in test [3] were 0.024 µM and above 10 µM, respectively. Further, the Ki in test [2] ([3H]-SR141716A 0.5 nM, Ki from IC50 and Kd by Cheng-Prusoff, average of double determination, read-out: hCB1R, Bindung Ki) was 0.02 µM.
Regarding `CCOc1ccc(NC(=O)Nc2ccccc2CN2C(=O)N(c3ccc(C#N)c(C(F)(F)F)c3)C(=O)C2(C)C)cc1` [Example 10, 1-{2-[3-(4-cyano-3-trifluoromethylphenyl)-5,5-dimethyl-2,4-dioxoimidazolidin-1-ylmethyl]phenyl}-3-(4-ethoxyphenyl)urea], the IC50 in test [1] (setting [5]) is 0.053 µM; in test [3], above 10 µM.
Consider `COC(=O)c1ccc(NC(=O)Nc2ccccc2CN2C(=O)N(c3ccc(C#N)c(C(F)(F)F)c3)C(=O)C2(C)C)cc1` [Example 3, methyl 4-(3-{2-[3-(4-cyano-3-trifluoromethylphenyl)-5,5-dimethyl-2,4-dioxoimidazolidin-1-ylmethyl]phenyl}ureido)benzoate], for which the IC50 in test [1] (hCB1R: FLIPR, IC50, recombinant HEK293 cells expressing CB1 and G-protein) is 0.019 µM; in test [3] (setting [6]), above 10 µM. In test [2], this compound registered a Ki of 0.011 µM.
`CCCCCCC(C)(C)c1ccc([C@@H]2C[C@H](O)CC[C@H]2CCCO)c(O)c1` [CP55.940]: the “fall in the body temperature” value in test [4] was 5-6 °C.
For `CC1(C)C(=O)N(c2ccc(C#N)c(C(F)(F)F)c2)C(=O)N1Cc1ccccc1NC(=O)Nc1ccc(C(=O)O)cc1` [Example 4, 4-(3-{2-[3-(4-Cyano-3-trifluoromethylphenyl)-5,5-dimethyl-2,4-dioxo-imidazolidin-1-ylmethyl]phenyl}ureido)benzoic acid], the IC50 in test [1] (setting [5]) was 0.109 µM; in test [3] (setting [6]), above 10 µM.
